Experimental findings from US8211646B1, “Methods of treating ovarian cancer by modulating SnoN” (University of South Florida, priority 2008, dated 2012) are described below.

Common to all, as to format: cell-based
For one series, the system named is ovarian cancer cells. Nature of the series: Cell titer glo cell viability assay. The protocol: Measurement of Intracellular ATP Levels. T80, HEY, and SKOV3 ovarian cells were seeded in triplicate for each treatment group at 5000 cells per well into each well of a 96 well white-opaque plate. Following overnight cell attachment, cells were treated for 18 hours with appropriate doses of arsenic trioxide or geldanamycin (0 mM, 2 μM, 5 μM, 10 μM, 25 μM, and 50 μM). Following termination of the cell treatments, the media was removed from the wells and replaced with 100 μl of phosphate-buffered saline (PBS). The plate was equilibrated to room temperature, 100 μl of Cell-Titer Glo reagent (Promega, Madison, Wis.) was added, and mixed on a plate shaker for 2 minutes. The plate was further incubated for 10 minutes at room temperature prior to reading with a Biotek luminescence plate reader to obtain relative light unit (RLU) measurements. Empty wells (containing no cells) were utilized as a correction for background luminescence. All experiments were performed in triplicate.

The test system of series [1] is LC3-I/LC3-II, autophagosomes. Nature of the series: Autophagy: LC3 western, EGFP-LC3 fluorescence, TEM of autophagosomes. As to the method: (§1) Proteins were resolved on an 8%, 12%, or 15% SDS-PAGE gel (as appropriate) and electrophoretically transferred to polyvinyldifluoride (PVDF) membranes. After blocking with 5% (w/v) milk in TBST (Tris-Buffered Saline containing 0.1% Tween-20) for one hour at room temperature, membranes were incubated with primary antibodies (at appropriate dilution) overnight at 4° C., followed by extensive washing and incubation for 1 hour with the appropriate horseradish peroxidase-conjugated secondary antibodies (BioRad, Hercules, Calif.). Blots were washed extensively. A rabbit polyclonal EVI1 antibody was obtained (1:3000 dilution, St. Jude's Children's Hospital, Memphis, Tenn.). SnoN rabbit polyclonal (1:1000 dilution), PML, and p21 SMURF2 rabbit polyclonal (1:500 dilution), MRP1 mouse monoclonal (1:500 dilution) and GAPDH mouse monoclonal (1:250 dilution) antibodies were obtained from Santa Cruz Biotechnology (Santa Cruz, Calif.). TGFβRII rabbit polyclonal (1:1000 dilution) antibody was obtained from Strategic Diagnostics (Newark, Del.). Smad2/3 rabbit polyclonal (1:1000 dilution), Beclin-1 rabbit polyclonal (1:1000 dilution), AKT rabbit polyclonal (1:1000 dilution), TAK1 rabbit polyclonal (1:1000 dilution), PARP rabbit polyclonal (1:1000 dilution), Beclin-1 rabbit polyclonal (1:1000 dilution), caspase-3 rabbit polyclonal (1:1000) which detects the pro-caspase form, and ATG5 rabbit polyclonal (1:1000 dilution), LC3-II rabbit polyclonal (1:1000 dilution) antibodies were obtained from Cell Signaling Technology (Danvers, Mass.). The HSP27 mouse monoclonal (1:1000 dilution) antibody was obtained from Stressgen (Ann Arbor, Mich.). Blots were developed using chemiluminescence substrates (Amersham Piscataway, N.J. or BioRad, Hercules, Calif.). Monoclonal PAI-1 antibody was obtained from BD Pharmingen. PSMAD2, total SMAD2/3, p-ERK, p-AKT, and total AKT antibodies were obtained from Cell Signaling Technology. A monoclonal antibody against Arkadia was obtained from Abnova (Taiwan).
HEY cells were seeded onto glass coverslips and allowed to adhere following overnight incubation. The cells were then transiently transfected with EGFP-LC3 (Addgene, Cambridge, Mass.) and allowed to recover for 24 hours. The cells were treated at the appropriate concentrations of As2O3 in the absence or presence of 3-MA (5 and 10 mM), for 18 hours. The cells were then fixed in 4% paraformaldehyde in PBS for 30 minutes at room temperature, washed twice in PBS, and blocked for 1 hour at room temperature in PBS containing 5% goat serum and 0.1% Triton X-100. The cells were counterstained with Hoescht nuclear stain, washed 3 times for 5 minutes in PBS, anti-Fade containing DAPI nuclear stain was then applied, and coverslips mounted onto glass slides and viewed under a Zeiss inverted fluorescence microscope (Moffitt Cancer Center Microscopy Core).
Autophagy induction was analyzed using electron microscopy. […] Cells were then fixed in 2.5% glutaraldehyde in 0.1M phosphate buffer overnight at 4° C. Following rinsing in buffer, cells were scraped from the culture flasks, washed, and then post-fixed in 1% osmium tetroxide in buffer. After dehydration in a graded series of acetone, the cells were embedded in Embed 812 epoxy resin. Thin sections (70 nm) were cut on an Ultramicrotome. The sections on the grids were stained with uranyl acetate and lead citrate. The sections were examined on a Transmission Electron Microscope (Morgagni 268D).

In another series the test system is cleaved PARP. Nature of the series: Western analysis of PARP cleavage (early apoptosis marker). The protocol: as §1
Densitometric analysis was performed using the HP Scanjet 5590 and the Image J program (Image Processing and Analysis in Java, NIH Image Software). Bands were selected and the intensity values were normalized to those for GAPDH. The values are presented as fold-changes relative to control siRNA treated cells.
The clinical inhibitors As2O3, geldanamycin (17-AAG) (dissolved in dimethylsulfoxide [DMSO]), and MG132 (dissolved in DMSO) were obtained from Sigma-Aldrich (St. Louis, Mo.), Fisher Scientific (Pittsburgh, Pa.), and Alexis Biochemicals (Farmingdale, N.Y.), respectively. N-acetyl-L-cysteine (NAC; dissolved in media) and Bortezomib (PS-341; dissolved in DMSO) were obtained from Fisher Scientific. 3-Methyladenine (3-MA; dissolved in media) was obtained from MP Biomedicals (Solon, Ohio). Tiron (4,5-Dihydroxy-1,3-benzenedisulfonic acid, dissolved in media) was obtained from Fisher Scientific. zVAD-fmk (dissolved in DMSO) and bafilomycin A (dissolved in DMSO) was obtained from Axxora LLC (San Diego, Calif.). Bovine catalase was obtained from Sigma-Aldrich. HBED and Mn TBAP was obtained from ENZO Life Sciences (Farmingdale, N.Y.). Ovarian cells were plated in 6-well plates at 250,000 cells per well and grown in complete medium. The following day, the cells were treated with 5 μM MG132, As2O3 (between 2-50 μM), 17-AAG (between 2-50 μM), NAC (Fisher Scientific, between 25 μM to 1 mM), Tiron (between 25 μM to 1 mM), 3-MA (0.1 mM to 10 mM), or zVAD-fmk (25 μM to 100 μM). For control cells, DMSO (a final concentration of <0.5%) was added to compare appropriately to drugs dissolved in DMSO. After the appropriate incubation time (6 or 18 hours), cell lysates were collected, protein quantified, and SDS-PAGE/western analysis was performed. In addition, for selected studies, RNA was isolated, quantified, and used for qPCR analysis.

On to Arsenic trioxide [As2O3], for which the “reduction of cell growth (cellular viability)” value in the series on ovarian cancer cells (25 μM, 18 hour treatment, relative to control cells) was 50%. Further, the “sensitivity of cellular viability to As2O3” value in the series on ovarian cancer cells (SKOV3 (high EVI1) compared to T80 (low EVI1), 2-50 μM, 18 hours) is “more resistant”. In series [1] (As2O3, 18 hours, correlated with SnoN expression), the “levels of LC3-I and LC3-II” value is “increased”. Further, the EGFP-LC3 staining pattern result in series [1] (HEY, As2O3 between 5 μM to 25 μM, data not shown) was “punctuate staining pattern around the nucleus”. Moreover, the “autophagosomes by TEM” value in series [1] (HEY, data not shown) was “numerous double membrane autophagosomes”. In addition, the “dose at which PARP fragmentation dramatically increased” value in the series with cleaved PARP (HEY and SKOV3) turned out to be 50 µM; in the series with cleaved PARP (T80), 25 µM.
